Test results: patent publication US20230285317A1, “DILUENTS, STANDARDIZATION AGENTS AND VISCOSITY CONTROL FOR CANNABINOIDS FORMULATIONS AND METHODS THEREOF” (Scientific Holdings, LLC, priority 2022, published 2023)

What was measured:
[1] = Long-term solubility and oil stability of cannabinoids in CBC at room temperature; assay type: physicochemical; settings: solid cannabinoid in CBC
Description: In an example embodiment, the solubility of a number of solid cannabinoid isolates in concentrations of 10-80 percent by mass were evaluated in CBC, a viscous oil at room-temperature. Solubility is assessed at 25 degrees (Celsius), after heating to 35 degrees (Celsius), after heating to 70 degrees (Celsius), and after heating to 100 degrees (Celsius). The solubility of cannabinoids with CBC is then observed at room temperature at various time points after formulation to determine long-term solubility and oil stability.
The samples were then heated at an appropriate temperature for 15 total minutes in a water bath and then if any of the CBD remained solid, the vial would be heated for 15 minutes at the next temperature level. A glass thermometer was used to observe and record the temperature. All eight vials corresponding to the eight concentrations of CBD in CBC became a homogeneous mass upon 6-8 minutes heating at 70 degrees (Celsius).
The samples were then heated at an appropriate temperature for 15 total minutes in a water bath and then if any of the CBG remained solid the vial would be heated for 15 minutes at the next temperature level. A glass thermometer was used to observe and record the temperature. […] The viscosity of the solution containing 50% CBG (Vial 13) and 60% CBG (Vial 14) increased upon standing for 35 to 40 minutes at room temperature.
The samples were then heated at an appropriate temperature for 15 total minutes in a water bath and then if any of the CBDA remained solid the vial would be heated for 15 minutes at the next temperature level. A glass thermometer was used to observe and record the temperature. […] But no solids were evident after 4 minutes at 100 degrees (Celsius). […] Vials 20 through 24, containing […] CBDA respectively in 10 weight percent increments, were homogenous liquids after 7 minutes at 100° C. The samples containing 30% CBDA to 60% CBDA became very viscous but remained liquid after 20 minutes at room temperature.
After day 1, the samples containing 10% to 80% CBD appeared more viscous but remained homogeneous oils. […]

[2] = Solubility of CBG in bisabolol; assay type: physicochemical
Description: Roughly 10% of the original amount of CBG seemed to remain crystalline in the sample containing 30% CBG. Approximately 20% the original amount of CBG remained crystalline in the sample containing 40% CBG. Approximately 30% of the original amount of CBG remained solid in the sample containing 50% CBG and approximately 40% of the original mass of CBG remained solid in the solution containing 60% CBG.

Compound	concentration up to which CBC gives a flowable and stable oil [1] [%]	concentration of CBG in a flowable and stable oil made with bisabolol [2]
C=C(C)[C@@H]1CCC(C)=C[C@H]1c1c(O)cc(CCCCC)cc1O [CBD, cannabidiol, reference compound]	≤ 80	–
CCCCCc1cc(O)c(C/C=C(\C)CCC=C(C)C)c(O)c1 [CBG, cannabigerol]	≤ 40	greater than 60%
C=C(C)[C@@H]1CCC(C)=C[C@H]1c1c(O)cc(CCCCC)c(C(=O)O)c1O [CBDA, cannabidiolic acid]	≤ 20	–
